Experimental data: PubChem BioAssay (NCI)
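Assay format: 96-well plates, 48-hour exposure. The concentration for full growth arrest is given as TGI.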

What was measured:
Test in all cases: NCI-60 cell line screen, 48 h
LXFL 529 NSCLC = system: LXFL 529 NSCLC
SK-MEL-28 melanoma = system: SK-MEL-28 melanoma
RXF 393 renal = system: RXF 393 renal
HL-60(TB) leukemia = system: HL-60(TB) leukemia
RPMI-8226 leukemia = system: RPMI-8226 leukemia
XF 498 CNS = system: XF 498 CNS
EKVX NSCLC = system: EKVX NSCLC
K-562 leukemia = system: K-562 leukemia
HOP-92 NSCLC = system: HOP-92 NSCLC
OVCAR-3 ovarian = system: OVCAR-3 ovarian
SF-295 CNS = system: SF-295 CNS
TK-10 renal = system: TK-10 renal
IGROV1 ovarian = system: IGROV1 ovarian
SK-MEL-2 melanoma = system: SK-MEL-2 melanoma
HOP-18 NSCLC = system: HOP-18 NSCLC
UO-31 renal = system: UO-31 renal
KM20L2 colon = system: KM20L2 colon
SK-OV-3 ovarian = system: SK-OV-3 ovarian
SNB-78 CNS = system: SNB-78 CNS
CCRF-CEM leukemia = system: CCRF-CEM leukemia
HT29 colon = system: HT29 colon
SF-268 CNS = system: SF-268 CNS
786-0 renal = system: 786-0 renal
M19-MEL melanoma = system: M19-MEL melanoma
NCI-H23 lung = system: NCI-H23 lung
KM12 colon = system: KM12 colon
A549 NSCLC = system: A549 NSCLC
NCI-H460 lung = system: NCI-H460 lung
SW-620 colon = system: SW-620 colon
U251 CNS = system: U251 CNS
MALME-3M melanoma = system: MALME-3M melanoma
SNB-19 CNS = system: SNB-19 CNS
DMS 273 small cell lung = system: DMS 273 small cell lung
SNB-75 CNS = system: SNB-75 CNS
ACHN renal = system: ACHN renal
HCT-116 colon = system: HCT-116 colon
OVCAR-8 ovarian = system: OVCAR-8 ovarian
HOP-62 NSCLC = system: HOP-62 NSCLC
UACC-257 melanoma = system: UACC-257 melanoma
COLO 205 colon = system: COLO 205 colon
DLD-1 colon = system: DLD-1 colon
DMS 114 small cell lung = system: DMS 114 small cell lung
HCC-2998 colon = system: HCC-2998 colon
MOLT-4 leukemia = system: MOLT-4 leukemia
A498 renal = system: A498 renal
OVCAR-5 ovarian = system: OVCAR-5 ovarian
SN12C renal = system: SN12C renal
SF-539 CNS = system: SF-539 CNS
OVCAR-4 ovarian = system: OVCAR-4 ovarian
HCT-15 colon = system: HCT-15 colon
LOX IMVI melanoma = system: LOX IMVI melanoma
CAKI-1 renal = system: CAKI-1 renal
UACC-62 melanoma = system: UACC-62 melanoma
NCI-H522 lung = system: NCI-H522 lung
NCI-H226 lung = system: NCI-H226 lung
M14 melanoma = system: M14 melanoma
SR leukemia = system: SR leukemia
SK-MEL-5 melanoma = system: SK-MEL-5 melanoma

Compound: Clc1ccc2c(c1)C1C(CO2)C(c2ccccc2)=NN1c1ccccc1 (configuration not stated)
- TGI (LXFL 529 NSCLC): > 100 µM
- TGI (SK-MEL-28 melanoma): > 100 µM
- TGI (RXF 393 renal): > 100 µM
- TGI (HL-60(TB) leukemia): 53.1 µM
- TGI (RPMI-8226 leukemia): 47.6 µM
- TGI (XF 498 CNS): 59 µM
- TGI (EKVX NSCLC): 68.6 µM
- TGI (K-562 leukemia): 93.8 µM
- TGI (HOP-92 NSCLC): 58.9 µM
- TGI (OVCAR-3 ovarian): > 100 µM
- TGI (SF-295 CNS): > 100 µM
- TGI (TK-10 renal): > 100 µM
- TGI (IGROV1 ovarian): > 100 µM
- TGI (SK-MEL-2 melanoma): 75.4 µM
- TGI (HOP-18 NSCLC): 50.8 µM
- TGI (UO-31 renal): 53.9 µM
- TGI (KM20L2 colon): > 100 µM
- TGI (SK-OV-3 ovarian): > 100 µM
- TGI (SNB-78 CNS): > 100 µM
- TGI (CCRF-CEM leukemia): 99.1 µM
- TGI (HT29 colon): > 100 µM
- TGI (SF-268 CNS): > 100 µM
- TGI (786-0 renal): > 100 µM
- TGI (M19-MEL melanoma): > 100 µM
- TGI (NCI-H23 lung): 99.8 µM
- TGI (KM12 colon): > 100 µM
- TGI (A549 NSCLC): > 100 µM
- TGI (NCI-H460 lung): > 100 µM
- TGI (SW-620 colon): > 100 µM
- TGI (U251 CNS): > 100 µM
- TGI (MALME-3M melanoma): > 100 µM
- TGI (SNB-19 CNS): > 100 µM
- TGI (DMS 273 small cell lung): 88.7 µM
- TGI (SNB-75 CNS): 82.9 µM
- TGI (ACHN renal): > 100 µM
- TGI (HCT-116 colon): 62.4 µM
- TGI (OVCAR-8 ovarian): > 100 µM
- TGI (HOP-62 NSCLC): > 100 µM
- TGI (UACC-257 melanoma): > 100 µM
- TGI (COLO 205 colon): > 100 µM
- TGI (DLD-1 colon): > 100 µM
- TGI (DMS 114 small cell lung): 77.5 µM
- TGI (HCC-2998 colon): > 100 µM
- TGI (MOLT-4 leukemia): 62.6 µM
- TGI (A498 renal): > 100 µM
- TGI (OVCAR-5 ovarian): > 100 µM

Compound: COc1cc(/C=C(\C#N)C(=O)c2ccccc2)ccc1O
- TGI (LXFL 529 NSCLC): > 100 µM
- TGI (SK-MEL-28 melanoma): > 100 µM
- TGI (HL-60(TB) leukemia): > 100 µM
- TGI (RPMI-8226 leukemia): > 100 µM
- TGI (XF 498 CNS): > 100 µM
- TGI (EKVX NSCLC): > 100 µM
- TGI (K-562 leukemia): > 100 µM
- TGI (SN12C renal): > 100 µM
- TGI (OVCAR-3 ovarian): > 100 µM
- TGI (SF-539 CNS): > 100 µM
- TGI (OVCAR-4 ovarian): > 100 µM
- TGI (SF-295 CNS): > 100 µM
- TGI (TK-10 renal): > 100 µM
- TGI (IGROV1 ovarian): > 100 µM
- TGI (SK-MEL-2 melanoma): > 100 µM
- TGI (UO-31 renal): > 100 µM
- TGI (HCT-15 colon): > 100 µM
- TGI (KM20L2 colon): > 100 µM
- TGI (SK-OV-3 ovarian): > 100 µM
- TGI (SNB-78 CNS): > 100 µM
- TGI (LOX IMVI melanoma): > 100 µM
- TGI (CCRF-CEM leukemia): > 100 µM
- TGI (CAKI-1 renal): > 100 µM
- TGI (UACC-62 melanoma): > 100 µM
- TGI (NCI-H522 lung): > 100 µM
- TGI (HT29 colon): > 100 µM
- TGI (SF-268 CNS): > 100 µM
- TGI (786-0 renal): > 100 µM
- TGI (M19-MEL melanoma): > 100 µM
- TGI (NCI-H23 lung): > 100 µM
- TGI (KM12 colon): > 100 µM
- TGI (A549 NSCLC): > 100 µM
- TGI (NCI-H460 lung): > 100 µM
- TGI (SW-620 colon): > 100 µM
- TGI (U251 CNS): > 100 µM
- TGI (MALME-3M melanoma): > 100 µM
- TGI (SNB-19 CNS): > 100 µM
- TGI (NCI-H226 lung): > 100 µM
- TGI (ACHN renal): > 100 µM
- TGI (HCT-116 colon): > 100 µM
- TGI (M14 melanoma): > 100 µM
- TGI (OVCAR-8 ovarian): > 100 µM
- TGI (HOP-62 NSCLC): > 100 µM
- TGI (SR leukemia): > 100 µM
- TGI (UACC-257 melanoma): > 100 µM
- TGI (COLO 205 colon): > 100 µM
- TGI (SK-MEL-5 melanoma): > 100 µM
- TGI (HCC-2998 colon): > 100 µM
- TGI (MOLT-4 leukemia): > 100 µM
- TGI (A498 renal): > 100 µM
- TGI (OVCAR-5 ovarian): > 100 µM
